The values that follow come from patent US9580449B2, “Compositions and methods for the production of pyrimidine and pyridine compounds with BTK inhibitory activity” (Merck Patent GmbH, priority 2011, dated 2017).

Chain of full-length human BTK (Q06187 whole entry): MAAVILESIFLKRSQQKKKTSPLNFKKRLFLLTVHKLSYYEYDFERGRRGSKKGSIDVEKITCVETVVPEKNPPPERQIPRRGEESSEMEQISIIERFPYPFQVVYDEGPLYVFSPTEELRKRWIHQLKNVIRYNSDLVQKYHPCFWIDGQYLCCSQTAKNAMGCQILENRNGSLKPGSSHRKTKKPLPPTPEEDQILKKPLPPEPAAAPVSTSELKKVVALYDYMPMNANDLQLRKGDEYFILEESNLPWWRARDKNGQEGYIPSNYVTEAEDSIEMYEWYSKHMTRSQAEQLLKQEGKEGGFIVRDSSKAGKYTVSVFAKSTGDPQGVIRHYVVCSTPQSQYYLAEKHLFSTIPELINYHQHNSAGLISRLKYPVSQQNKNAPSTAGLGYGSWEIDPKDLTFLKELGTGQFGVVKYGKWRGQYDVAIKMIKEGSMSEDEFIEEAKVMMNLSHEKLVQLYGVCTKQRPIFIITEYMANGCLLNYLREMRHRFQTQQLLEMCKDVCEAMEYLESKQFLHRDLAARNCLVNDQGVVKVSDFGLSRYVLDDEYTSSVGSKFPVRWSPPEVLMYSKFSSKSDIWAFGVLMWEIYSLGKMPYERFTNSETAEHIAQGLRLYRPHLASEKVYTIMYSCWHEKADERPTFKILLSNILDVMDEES

For the test, the target named is full-length human BTK (Homo sapiens (Human), UniProt Q06187). The test can be described thus: BTK IC50 enzyme assay (microfluidic off-chip mobility shift kinase assay). It counts as biochemical. The following applies: incubated for 90 min. at 27 C; read-out: Time Dependent BTK Enzyme Assay IC50. In outline:
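Read-out separates phosphorylated peptide product from substrate by charge/mass in a mobility shift format with full-length human BTK.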
The IC50 is the concentration that gives 50% inhibition. Take `C=CC(=O)N1CCC2(CCN(c3ncnc(N)c3-c3ccc(Oc4ccccc4)cc3)CC2)C1` [A92, 1-(8-(6-amino-5-(4-phenoxyphenyl)pyrimidin-4-yl)-2,8-diazaspiro[4.5]decan-2-yl)prop-2-en-1-one]: the IC50 was less than 1000 nM.

For the compound `Nc1cccc(-c2c(Oc3ccc(Oc4ccccc4)cc3)ccnc2N)c1` [A300, 3-(3-aminophenyl)-4-(4-phenoxyphenoxy)pyridin-2-amine], the half-maximal inhibitory concentration (IC50) was less than 1000 nM.

With `C=CC(=O)[C@H]1CCC[C@H](Nc2ncnc(N)c2-c2ccc(Oc3ccccc3)cc2)C1` [A143, 1-((1S,3S)-3-(6-Amino-5-(4-phenoxyphenyl)-pyrimidin-4-ylamino)-cyclohexyl)-propenone], the IC50 was less than 100 nM.

Consider `CC1=CC(C)=[N+]2C1=Cc1ccc(CCC(=O)NCCN3CCN(C/C=C/C(=O)Nc4cccc(Oc5ncnc(N)c5-c5ccc(Oc6ccccc6)cc5)c4)CC3)n1[B-]2(F)F` [A35, (E)-7-(3-((2-(4-(4-((3-((6-amino-5-(4-phenoxyphenyl)pyrimidin-4-yl)oxy)phenyl)amino)-4-oxobut-2-en-1-yl)piperazin-1-yl)ethyl)amino)-3-oxopropyl)-5,5-difluoro-1,3-dimethyl-5H-dipyrrolo[1,2-c:2′,1′-f][1,3,2]diazaborinin-4-ium-5-uide], for which the IC50 is […].

With `CCC(=O)NCc1ccc(-c2cnccc2Oc2ccc(Oc3ccccc3)cc2)cc1` [A324, N-(4-(4-(4-phenoxyphenoxy)pyridin-3-yl)benzyl)propionamide], the IC50 was more than 1000 nM.

For `C=CC(=O)Nc1cncc(Nc2ncnc(N)c2-c2ccc(Oc3ccccc3)cc2)c1` [A186, N-(5-((6-amino-5-(4-phenoxyphenyl)pyrimidin-4-yl)amino)pyridin-3-yl)acrylamide], the IC50 was less than 100 nM.

As for `CN(C)C/C=C/C(=O)N1CCC[C@@H](Nc2ncnc(N)c2-c2ccc(Oc3ccccc3)cc2)C1` [A74, (R,E)-1-(3-((6-amino-5-(4-phenoxyphenyl)pyrimidin-4-yl)amino)piperidin-1-yl)-4-(dimethylamino)but-2-en-1-one], the half-maximal inhibitory concentration (IC50) was less than 1000 nM.

`Nc1ncnc(Oc2cccc(NC(=O)CCl)c2)c1-c1ccc(OCc2ccccc2)cc1F` [A350, N-{3-(6-Amino-5-(4-benzyloxy-2-fluoro-phenyl)-pyrimidin-4-yloxy}-phenyl)-2-chloro-acetamide]: the IC50 was less than 100 nM.

On to `CC=CC(=O)c1cccc(CNc2ncnc(N)c2-c2ccc(Oc3ccccc3)cc2)c1` [A142, 1-(3-((6-Amino-5-(4-phenoxyphenyl)-pyrimidin-4-ylamino)-methyl)-phenyl)-but-2-en-1-one], for which the IC50 was less than 100 nM.

As to `CC#CC(=O)Nc1cccc(-c2cnccc2Oc2ccc(Oc3ccccc3)cc2)c1` [A296, N-(3-(4-(4-phenoxyphenoxy)pyridin-3-yl)phenyl)but-2-ynamide], the IC50 is less than 1000 nM.

For the compound `C=CC(=O)N1CCC(CNc2ncnc(N)c2-c2cc(F)c(Oc3ccccc3)cc2F)CC1` [A87, 1-(4-(((6-amino-5-(2,5-difluoro-4-phenoxyphenyl)pyrimidin-4-yl)amino)methyl)piperidin-1-yl)prop-2-en-1-one], the half-maximal inhibitory concentration (IC50) is less than 1000 nM.

With `C=CC(=O)N1CCC(CNc2nc(C)nc(N)c2-c2ccc(Oc3ccccc3)cc2)CC1` [A36, 1-(4-(((6-amino-2-methyl-5-(4-phenoxyphenyl)pyrimidin-4-yl)amino)methyl)piperidin-1-yl)prop-2-en-1-one], the IC50 is more than 1000 nM.

As to `C=CC(=O)Nc1ccc(F)c(Oc2ncnc(N)c2-c2ccc(Oc3ccccc3)nc2)c1` [A161, N-(3-((6-amino-5-(6-phenoxypyridin-3-yl)pyrimidin-4-yl)oxy)-4-fluorophenyl)acrylamide], the half-maximal inhibitory concentration (IC50) is less than 100 nM.

As to `C=CC(=O)N1CCC(CNc2ncnc(N)c2-c2ccc(C(F)(F)F)cc2)CC1` [A81, 1-(4-(((6-amino-5-(4-(trifluoromethyl)phenyl)pyrimidin-4-yl)amino)methyl)piperidin-1-yl)prop-2-en-1-one], the IC50 is more than 1000 nM.

In the case of `Nc1ncnc(Oc2ccc(Oc3ccccc3)cc2)c1-c1cccc(NC(=O)/C=C/CN2CCCC(F)(F)C2)c1` [A301, (E)-N-(3-(4-amino-6-(4-phenoxyphenoxy)pyrimidin-5-yl)phenyl)-4-(3,3-difluoropiperidin-1-yl)but-2-enamide], the IC50 is more than 1000 nM.

As for `C=CC(=O)Nc1cccc(Oc2ncnc(N)c2-c2cccc(OC(F)(F)F)c2)c1` [A164, N-(3-((6-amino-5-(3-(trifluoromethoxy)phenyl)pyrimidin-4-yl)oxy)phenyl)acrylamide], the IC50 was more than 1000 nM.

`Nc1ncnc(NCC2CCN(C(=O)/C=C/CN3CC(F)(F)C3)CC2)c1-c1ccc(Oc2ccccc2)cc1` [A219, (E)-1-(4-(((6-amino-5-(4-phenoxyphenyl)pyrimidin-4-yl)amino)methyl)piperidin-1-yl)-4-(3,3-difluoroazetidin-1-yl)but-2-en-1-one]: the IC50 was more than 1000 nM.

Regarding `CCC(=O)Nc1cccc(Oc2ncnc(N)c2-c2ccc(Oc3ccccc3)cc2)c1` [A326, N-(3-((6-amino-5-(4-phenoxyphenyl)pyrimidin-4-yl)oxy)phenyl)propionamide], the half-maximal inhibitory concentration (IC50) is more than 1000 nM.

For `C=CC(=O)Nc1cccc(Oc2ncnc(N)c2-c2cnn(Cc3cccc(N(C)C)c3)c2)c1` [A212, N-(3-((6-amino-5-(1-(3-(dimethylamino)benzyl)-1H-pyrazol-4-yl)pyrimidin-4-yl)oxy)phenyl)acrylamide], the IC50 was less than 100 nM.

Regarding `C=CC(=O)N1C[C@@H](F)C[C@H](Nc2ncnc(N)c2-c2ccc(Oc3ccccc3)cc2)C1` [A204, 1-((3S,5S)-3-((6-amino-5-(4-phenoxyphenyl)pyrimidin-4-yl)amino)-5-fluoropiperidin-1-yl)prop-2-en-1-one], the IC50 was less than 100 nM.

`C=CC(=O)N1CCC(CNc2ncncc2-c2ccc(Oc3ccccc3)cc2)CC1` [A334, 1-(4-(((5-(4-phenoxyphenyl)pyrimidin-4-yl)amino)methyl)piperidin-1-yl)prop-2-en-1-one]: the concentration for half-maximal inhibition (IC50) is less than 100 nM.

As for `C=CC(=O)Nc1cccc(Oc2ncnc(N)c2-c2c(F)cc(OCc3ccccc3)cc2F)c1` [A294, N-(3-((6-amino-5-(4-(benzyloxy)-2,6-difluorophenyl)pyrimidin-4-yl)oxy)phenyl)acrylamide], the 50% inhibitory concentration (IC50) is less than 1000 nM.

With `C=CC(=O)N[C@H]1C[C@H](O)C[C@@H](Nc2ncnc(N)c2-c2ccc(Oc3ccccc3)cc2)C1` (racemic) [A188, N-((1R,3S,5R)-3-((6-amino-5-(4-phenoxyphenyl)pyrimidin-4-yl)amino)-5-hydroxycyclohexyl)acrylamide], the concentration for half-maximal inhibition (IC50) was less than 1000 nM.

For `C=CC(=O)N1CC=C(c2c(N)ncnc2Oc2ccc(Oc3ccccc3)cc2)CC1` [A263, 1-(4-(4-amino-6-(4-phenoxyphenoxy)pyrimidin-5-yl)-5,6-dihydropyridin-1(2H)-yl)prop-2-en-1-one], the concentration for half-maximal inhibition (IC50) was less than 1000 nM.

As for `Nc1ncnc(NCC2(F)CCN(C(=O)CCN3CCCCC3)CC2)c1-c1ccc(Oc2ccccc2)cc1` [A235, 1-(4-(((6-amino-5-(4-phenoxyphenyl)pyrimidin-4-yl)amino)methyl)-4-fluoropiperidin-1-yl)-3-(piperidin-1-yl)propan-1-one], the IC50 is more than 1000 nM.

Regarding `C=CC(=O)NC1(CNc2ncnc(N)c2-c2ccc(Oc3ccccc3)cc2)CCCC1` [A20, N-(1-(((6-amino-5-(4-phenoxyphenyl)pyrimidin-4-yl)amino)methyl)cyclopentyl)acrylamide], the IC50 is more than 1000 nM.

For the compound `CCC(=O)Nc1cccc(-c2cnccc2Oc2ccc(Oc3ccccc3)cc2)c1` [A319, N-(3-(4-(4-phenoxyphenoxy)pyridin-3-yl)phenyl)propionamide], the concentration for half-maximal inhibition (IC50) was more than 1000 nM.

As for `C#CC(=O)N1CC[C@H](CNc2ncnc(N)c2-c2ccc(Oc3ccccc3)cc2)C1` [A61, (R)-1-(3-(((6-amino-5-(4-phenoxyphenyl)pyrimidin-4-yl)amino)methyl)pyrrolidin-1-yl)prop-2-yn-1-one], the half-inhibitory concentration (IC50) is less than 100 nM.

With `CC#CC(=O)N1CC2(CC(Nc3ncnc(N)c3-c3ccc(Oc4ccccc4)cc3)C2)C1` [A108, 1-(6-((6-amino-5-(4-phenoxyphenyl)pyrimidin-4-yl)amino)-2-azaspiro[3.3]heptan-2-yl)but-2-yn-1-one], the IC50 is less than 100 nM.

With `C=CC(=O)Nc1cccc(Oc2nc(N)ncc2-c2ccc(Oc3ccccc3)cc2)c1` [A271, N-(3-((2-amino-5-(4-phenoxyphenyl)pyrimidin-4-yl)oxy)phenyl)acrylamide], the 50% inhibitory concentration (IC50) was less than 100 nM.

On to `CC#CC(=O)N1CCC(COc2ncnc(N)c2-c2ccc(Oc3ccccc3)cc2)CC1` [A9, 1-(4-(((6-amino-5-(4-phenoxyphenyl)pyrimidin-4-yl)oxy)methyl)piperidin-1-yl)but-2-yn-1-one], for which the half-inhibitory concentration (IC50) was less than 100 nM.

Consider `C=CC(=O)Nc1cccc(Oc2ncnc(N)c2-c2cnn(Cc3cccc(C#N)c3)c2)c1` [A203, N-(3-((6-amino-5-(1-(3-cyanobenzyl)-1H-pyrazol-4-yl)pyrimidin-4-yl)oxy)phenyl)acrylamide], for which the concentration for half-maximal inhibition (IC50) is less than 100 nM.

As for `C=CC(=O)N1CCCC(CNc2ncnc(N)c2-c2ccc(Oc3ccccc3)cc2)C1` (stereo not drawn) [A286, 1-(3-(((6-amino-5-(4-phenoxyphenyl)pyrimidin-4-yl)amino)methyl)piperidin-1-yl)prop-2-en-1-one], the IC50 is less than 1000 nM.

Take `C=CC(=O)NCCCCNc1ncnc(N)c1-c1ccc(Oc2ccccc2)cc1` [A50, N-(4-((6-amino-5-(4-phenoxyphenyl)pyrimidin-4-yl)amino)butyl)acrylamide]: the half-inhibitory concentration (IC50) is less than 1000 nM.

On to `CC#CC(=O)[C@H]1CCC[C@@H](Nc2ncnc(N)c2-c2ccc(Oc3ccccc3)cc2)C1` [A147, 1-((1S,3R)-3-(6-amino-5-(4-phenoxyphenyl)-pyrimidin-4-ylamino)-cyclohexyl)-but-2-yn-1-one], for which the IC50 was less than 100 nM.

With `C=CC(=O)N1CCC(CNc2ncnc(N)c2-c2ccc(OC(F)(F)F)cc2)CC1` [A78, 1-(4-(((6-amino-5-(4-(trifluoromethoxy)phenyl)pyrimidin-4-yl)amino)methyl)piperidin-1-yl)prop-2-en-1-one], the IC50 was more than 1000 nM.
